Measured values as given in US11596608B2, “Formulation” (INDEX PHARMACEUTICALS AB, priority 2018, dated 2023).
Oligonucleotides are written 5' to 3', each unit as a sugar letter and its base; * is a phosphorothioate linkage, no mark a phosphodiester; rarer units and linkages stand in square brackets, end groups in braces. Plain capitals give the bases only. d = 2'-deoxy (DNA)

Legend:
[1] = Cobitolimod suspension limit in Capryol only; type: physicochemical; conditions: corresponding to 13-14% cobitolimod in Capryol PGMC
Description: The cobitolimod suspension limit in Capryol only was assessed by repeating the steps of (i) adding the API to Capryol, (ii) spatula stirring and (iii) sonication, until the suspension became unworkable due to, for example, being too viscous, agglomerates forming that would not break down etc.

[2] = Chemical stability assessment of core formulations (HPLC assay and related substances); type: physicochemical; conditions: reference raw material
Description: The bulk mixes were assessed physically and chemically initially and following four weeks of storage at 40° C./75% RH. For the physical assessments, samples were assessed visually for appearance changes, focusing on colour and physical behaviour.
The samples were run on an X Bridge BEH C18, 2.5 μm, 4.6 mm×50 mm column with a flow rate of 0.4 ml/min at 60° C., a run time of 60 minutes and a detection wavelength of 260 nm. The sample injection volume was […] with a sampler temperature of 5° C. The mobile phase compositions were as follows: • Mobile phase A 3% Acetonitrile in 0.2% TEA, 1% HFIP, • Mobile phase B 12% Acetonitrile in 0.2% TEA, 1% HFIP, • Mobile phase C Acetonitrile, • Mobile phase D water.

[3] = tested on: chronic active UC; conditions: cited from earlier work
[4] = observed during manufacture of Example 3 formulation
Description: The vials were then high shear mixed for a minimum of 2×2 minutes then allowed to settle, all had visible insoluble material, therefore the samples were then high shear mixed for a further 2 minutes and visually assessed before samples taken for pH analysis. pH analysis involved centrifuging the sample at 14000 RPM for 10 minutes to separate out the insoluble material and then diluting 1 g of the clear supernatant with 3 g of deionised water, mixing thoroughly and measuring the pH.

[5] = tested on: UC; conditions: versus placebo; cited from earlier work

5′-G*G*A*ACAGTTCGTCCAT*G*G*C-3′ (DNA dG*dG*dA*dAdCdAdGdTdTdCdGdTdCdCdAdT*dG*dG*dC) [cobitolimod]
limit of suspendability expressed per capsule [1]: approx. 53 mg cobitolimod/capsule | impurity level [2]: 5.3 area % | safety and tolerability ([3]; human, in vivo): safe and well tolerated | clinical efficacy ([3]; patients with chronic active UC): effective to induce clinical response and remission

NC(CO)(CO)CO [tromethamine]
solubility of tromethamine in Capryol PGMC [4]: some insolubility

vedolizumab: α4β7 integrin inhibitor approved for the treatment of UC
inducing and maintaining clinical response, clinical remission, and mucosal healing [5]: more effective than placebo
